Source: patent US20070010459A1, “Application of asiatic acid and its derivatives to treat pulmonary fibrosis” (priority 2005, published 2007)

What was measured:
[1] = Pharmacokinetics, tissue distribution and excretion of asiaticoside; assay type: in vivo, rats; conditions: rats, asiaticoside gavage, highest dose (100 mg/kg)
Description: Three doses of asiaticoside (10, 33, 100 mg/kg) were gavaged to rats (n=6) and canines (n=4). After dosing, blood was sampled up to 120 or 216 hours in rats and canines respectively. Tissue distribution and excretion studies in rats were carried out with the highest dose.
The respective asiaticoside and asiatic acid in the same bio-matrix were detected by LC/MS/MS and GC/MS. Because the secondary peak resembled a plasma concentration-time profile in both rat and canine rather than conventional compartment fitting, statistical moment analysis was used in calculating pharmacokinetic parameters. […] In addition to the targeted organ, both asiaticoside and asiatic acid were distributed in some other organs, which could be the sign to expand clinical indications.

[2] = test system: Beagle dogs; experiment: Acute toxicity study in Beagle dogs; assay type: in vivo; conditions: single administration
Excerpt: Therefore the highest dosage was given to the animal. […] Food uptake and activity were normal in the observation period.

[3] = test system: SD rats; experiment: General reproductive toxicity study in rats; assay type: in vivo
Description: SD rats were intragastric administrated with 120, 380 or 1200 mg/kg of asiaticoside respectively. Male and female were given 4 weeks or two weeks of asiaticoside before combining the cages. The male ones were given 5 additional weeks of asiaticoside, while female ones were given the drug till the 15th day of gestation. […] Weight, contour, internal organs and skeleton of fetus were all normal.

[4] = test system: Beagle dogs; experiment: Chronic toxicity study in Beagle dogs; assay type: in vivo
Description: Beagle dogs were given 18, 72 or 240 mg/kg asiaticoside respectively daily for 9 consecutive months along with a control group.

[5] = test system: primary culture of mice fibroblast; experiment: bFGF-stimulated proliferation of primary fibroblast culture; assay type: cell-based; conditions: bFGF 0.5 g/ml; tested at 25, 12.5, 6.25, 3.125 or 1.56 μg
Description: Using bFGF (0.5 µg/ml), the proliferation of primary culture of mice fibroblast with the presence of asiaticoside or asiatic acid at 25, 12.5, 6.25, 3.125 or 1.56 μg respectively was assessed.

[6] = test system: rats with pulmonary fibrosis induced by bleomycin; experiment: Pharmacodynamics of asiaticoside in rats with pulmonary fibrosis induced by bleomycin; assay type: in vivo
Description: The rats with lung fibrosis were induced by bleomycin through trachea administration and then treated with asiaticoside. […] The study regimen lasted for 28 days. The lung weight coefficient and hydroyproline (HXP) content were measured on day 2 and 8 after the formation of animal model. CT scan, pathology and serum ECM content measurements were conducted on day 14, 21 and 28 days respectively.

[7] = PK study: plasma asiaticoside and asiatic acid after intragastric asiaticoside; assay type: in vivo, SD rats; conditions: asiaticoside 100 mg/kg intragastric; 0.5-24 hours; LC/MS
Description: SD rats were given asiaticoside through intragastric administration at 100 mg/kg. The blood samples were taken 0.5, 1, 2, 4, 6, 9, 12 and 24 hours after administration respectively. Plasma samples were prepared and analyzed for asiaticoside and asiatic acid concentration by LC/MS or GC/MS respectively. […] The plasma concentration of asiatic acid peaked after 4-6 hours after administration.

[8] = test system: radiation pneumonia and subsequent pulmonary fibrosis induced by Cobalt-60 radiation; experiment: Pharmacodynamics of asiaticoside in radiation pneumonia induced by Cobalt-60 radiation; assay type: in vivo, rats; design: Type IV (collagen content comparison, serum ECM) / Laminin (serum ECM) / Hyaluronic Acid (serum ECM): unit not given here
Description: Radiation pneumonia and subsequent pulmonary fibrosis in rats was induced by Cobalt-60 radiation. The efficacies were assessed by the lung weight coefficient, HXP content, serum ECM measurement, CT scan and pathological examinations.

[9] = test system: SD rats; experiment: Embryonic and fetus toxicity and teratogenicity test in SD rats; assay type: in vivo
Description: SD rats were given 120, 380 or 1200 mg/kg of asiaticoside respectively through intragastric administration for 10 consecutive days from day 6-15 of gestation. […] Nor there were any fetus anomalies or obform.

[10] = asiaticoside, range over 3 doses (4, 12, 36 mg/kg)

Compound: C[C@H]1[C@H](C)CC[C@]2(C(=O)O[C@@H]3O[C@H](CO[C@@H]4O[C@H](CO)[C@@H](O[C@@H]5O[C@H](C)[C@H](O)[C@@H](O)[C@H]5O)[C@H](O)[C@H]4O)[C@@H](O)[C@H](O)[C@H]3O)CC[C@]3(C)C(=CC[C@@H]4[C@@]5(C)C[C@@H](O)[C@H](O)[C@@](C)(CO)[C@@H]5CC[C@]43C)[C@H]12 [Asiaticoside, asiaticoside]
- Main excretion route [1]: feces, bile and urine
- Tissue accumulation [1]: no apparent tissue accumulation
- Highest dose given, no toxicity observed (no acute LD50 could be measured) [2]: 10000 mg/kg
- Clinical observation in male and female animals ([3]; 1.2 g/kg): bleeding around apertura narium
- Reproductive toxicity ([3]; 120, 380 or 1200 mg/kg intragastric): no reproductive toxicity
- Nontoxic dose as multiple of proposed clinical dosage in human ([4]; 240 mg/kg/d): 40 ×
- Nontoxic dose ([4]; 9-month chronic toxicity study, 18, 72 or 240 mg/kg daily): 240 mg/kg/day
- Toxicity observations (behavior, activity, weight, mental state, excrement and urine) ([4]; 18, 72 or 240 mg/kg daily for 9 consecutive months): no apparent toxicity
- Inhibitory activity on fibroblast proliferation [5]: no apparent inhibitory activity
- HXP content ([6]; asiaticoside 4 mg/kg, 28 days): 19.63 ± 3.91 mg/g
- Lung weight coefficient ([6]; asiaticoside 4 mg/kg, 28 days): 0.63%
- HXP content ([6]; asiaticoside 12 mg/kg, 28 days): 18.95 ± 7.00 mg/g
- Lung weight coefficient ([6]; asiaticoside 12 mg/kg, 28 days): 0.66%
- HXP content ([6]; asiaticoside 36 mg/kg, 28 days): 18.56 ± 3.98 mg/g
- Lung weight coefficient ([6]; asiaticoside 36 mg/kg, 28 days): 0.64%
- Pathology ([6]; asiaticoside 4, 12, 36 mg/kg): light fibroplasias in alveoli pulmonis diaphragm, light lymphocyte infiltration and compensatory emphysema
- CT scan findings ([6]; asiaticoside 4, 12, 36 mg/kg, not dose dependent): ground glass infiltration in the lung tissue was found, but was significantly less than in the model group
- Overall efficacy ([6]; asiaticoside 4, 12 and 36 mg/kg, 28 days): efficacious in preventing and treating lung fibrosis induced by bleomycin to certain extent
- ET-1 (cytokine content) [6, 10]: 229.62-241.60
- Hyaluronic Acid (serum ECM) [6, 10]: 112.66-312.28
- Laminin (serum ECM) [6, 10]: 43.83-55.75
- PIIIP (collagen content comparison, serum ECM) [6, 10]: 13.87-24.54
- TNF-α (cytokine content) [6, 10]: 5.20-6.49
- TNF-[…] (cytokine content) [6, 10]: 0.067-0.077
- Type IV (collagen content comparison, serum ECM) [6, 10]: 4.33-10.45
- Plasma concentration of asiaticoside [7]: only trace quantity
- HXP content ([8]; asiaticoside 4 mg/kg): 40.88 ± 9.77 mg/g
- Hyaluronic Acid (serum ECM) ([8]; asiaticoside 4 mg/kg): 259.01 ± 64.39
- Laminin (serum ECM) ([8]; asiaticoside 4 mg/kg): 39.21 ± 5.69
- Lung weight coefficient ([8]; asiaticoside 4 mg/kg): 0.42%
- PIIIP (collagen content comparison, serum ECM) ([8]; asiaticoside 4 mg/kg): 21.00 ± 9.50
- Type IV (collagen content comparison, serum ECM) ([8]; asiaticoside 4 mg/kg): 14.74 ± 4.03
- HXP content ([8]; asiaticoside 12 mg/kg): 32.78 ± 4.37 mg/g
- Hyaluronic Acid (serum ECM) ([8]; asiaticoside 12 mg/kg): 246.91 ± 33.2
- Laminin (serum ECM) ([8]; asiaticoside 12 mg/kg): 41.11 ± 9.15
- Lung weight coefficient ([8]; asiaticoside 12 mg/kg): 0.20%
- PIIIP (collagen content comparison, serum ECM) ([8]; asiaticoside 12 mg/kg): 18.84 ± 10.70
- Type IV (collagen content comparison, serum ECM) ([8]; asiaticoside 12 mg/kg): 11.97 ± 4.09
- HXP content ([8]; asiaticoside 36 mg/kg): 31.38 ± 4.75 mg/g
- Hyaluronic Acid (serum ECM) ([8]; asiaticoside 36 mg/kg): 220.64 ± 67.55
- Laminin (serum ECM) ([8]; asiaticoside 36 mg/kg): 48.29 ± 10.67
- Lung weight coefficient ([8]; asiaticoside 36 mg/kg): 0.34%
- PIIIP (collagen content comparison, serum ECM) ([8]; asiaticoside 36 mg/kg): 14.27 ± 10.40
- Type IV (collagen content comparison, serum ECM) ([8]; asiaticoside 36 mg/kg): 10.04 ± 5.69
- CT scan findings ([8]; high dose asiaticoside group): a few fibrotic streaks
- CT scan findings ([8]; low dose asiaticoside group): mild ground glass infiltration and atelectasis in the right lower lung
- CT scan findings ([8]; median dose asiaticoside group): mild ground glass infiltration and fibrotic streaks in the right lung
- Overall efficacy ([8]; pulmonary fibrosis induced by radiation): efficacious in treating pulmonary fibrosis induced by radiation to certain extent
- Dose without embryonic and fetus toxicity as multiple of effective dose (6 mg/kg) in mice ([9]; 1.2 g/kg): 200 ×
- Incidence rate of enlargement of fetus pelvis renalis ([9]; 1.2 g/kg): increased, yet this was not statistically significant
- Embryonic and fetus toxicity ([9]; 120, 380 or 1200 mg/kg intragastric, day 6-15 of gestation): no embryonic and fetus toxicity
- Dose with no embryonic and fetus toxicity ([9]; intragastric, day 6-15 of gestation): 1200 mg/kg
